“Also recorded” adds a separate entry of the source. Like-named read-outs stand apart in the source and are kept apart here. Marks after values point to notes of the source that are not given here.
Key:
In vitro half-life = type: in vitro ADME
Text: The safety profile of TH9507 is generally good.

[1] = system: patients exhibiting sleep maintenance insomnia; assay: Continuous Performance Test (CPT), 14-day study in sleep maintenance insomnia; type: in vivo, human; conditions: 14 days
Experimental: Patients were selected based on the Pittsburgh Sleep Quality Index (Score ≧5), the Walters Criteria for Sleep Maintenance Insomnia, and the Beck Questionnaire (Score ≦17). The primary exclusion criteria were other primary sleep disorders and the use of any products affecting sleep or vigilance in the 30 days prior to entering the study.
The study was a randomized, double-blind, placebo-controlled, parallel group and multicenter evaluation of two doses of TH9507 (0.1 mg and 1 mg) administered daily by subcutaneous injection at bedtime for 14 consecutive days. To evaluate vigilance and the performance in the morning, patients underwent a battery of cognitive tests including the Continuous Performance Test (CPT) at baseline and at the end of treatment period.
The CPT has been described in the literature as a measure of consistency in responding and ability to sustain attention over time (Aleman A, et al., J Clin Endocrinol Metab 1999 84(2):471-475). This test required subjects to press space bar each time the letter “A” was followed by “X”. Omission and commission errors, and Mean Reaction Time of correct responses were analyzed.

[2] = system: healthy subjects exhibiting age-related sleep impairment; assay: P300 event-related potential test, 7-day cross-over study; type: in vivo, human; conditions: 1 mg daily for 7 days
Experimental: In this study, TH9507 was administered daily for 7 days in a cross-over design. […] Changes from Baseline to day 9 in the Pz amplitude of the Evoked Related Potential (P300) observed in the placebo and 1 mg group were as follows: Placebo, −15%; 1 mg, +55%, P=0.0114, as analyzed by an ANOVA model.

[3] = Safety profile in the two vigilance studies; type: in vivo, human
[4] = system: antigen-specific proliferative T cell response; type: in vivo, human; conditions: 2 mg SC daily 8 weeks; week 0 to week 20; Panama, New Caledonia, Victoria
[5] = system: A/New Caledonia/20/99, A/Panama/2007/99, B/Victoria/504/2000 antigens; assay: Influenza antibody titers by hemaglutination inhibition assay in elderly subjects; type: in vivo, human
IGF-1 [6] = assay: Mean IGF-1 values, influenza vaccination study; type: in vivo, human; conditions: 1 and 2 mg SC daily, whole 8-week treatment period
Experimental: (§1) Eighty seven (87) subjects aged 75 years in average were included in a double-bind, randomized, placebo-controlled study. TH9507 or a placebo was administered at a daily dose of 1 or 2 mg by subcutaneous injection for 8 weeks. Follow-up assessments were conducted for 12 weeks after the end of the treatment period. At week 4, in the middle of the treatment period, subjects received the commercial Canadian influenza vaccine (Vaccine Fluviral® S/F, Shire, Montreal, Canada) containing 15 μg each of A/New Caledonia/20/99, A/Panama/2007/99, B/Victoria/504/2000 antigens.
Values returned to baseline following cessation of treatment.

[7] = type: in vivo, human; conditions: 1 or 2 mg SC daily, 8 weeks
Experimental: as §1

IGF-1 [8] = assay: Circulating IGF-1 levels, 7-day administration in healthy middle-aged men; type: in vivo, human; conditions: for IGF-1 increase over baseline values / IGF-1 levels reached: 7 days
Experimental: (§2) The study used a randomized, double-blind, placebo-controlled design and was conducted in healthy men, aged 50 to 60 years old. Subjects (8 per group) were injected S.C. once a day for 7 consecutive days with placebo, 0.5, 1 or 2 mg of TH9507. Circulating IGF-1 levels were measured on Days 1 to 7. The 12 hour GH response and TH9507 PK profile were determined on Day 1 and 7.

[9] = TH9507 PK profile, 7-day study in healthy men; type: in vivo, human
Experimental: as §2

[10] = system: HIV-infected patients with abdominal fat accumulation; conditions: change from baseline, Week 12, mean (SD)
Experimental: (§3) Design: Randomized, placebo-controlled, multi-center, dose ranging (placebo, 1 mg or 2 mg SC QD), parallel group, 12-week study
At the baseline visit, anthropometric measurements were obtained. […] Biochemical parameters including insulin-like growth factor-I, glucose, insulin, lipid profile (cholesterol, HDL, LDL, triglyceride, non HDL and the ratio of cholesterol:HDL), free fatty acids, HbA1C, IGFBP-3, and bone markers (serum osteocalcin and NTX-1), CD4, viral load, and a pregnancy test for female subjects were determined in the fasting state. In addition, insulin and glucose response to a 75 gram standard glucose challenge were assessed and a quality of life questionnaire was administered.
Clinical laboratory testing was performed by a central lab. Serum IGF-1 was measured after acid-ethanol extraction using the Esoterix RIA kit (Esoterix Inc., Calabasas Hill, Calif.), with a sensitivity of 10 ng/mL. Intra- and inter-assay coefficients of variation were 4.6-20% and 9-10%, respectively. Serum IGFBP-3 was measured using the Esoterix RIA kit (Esoterix Inc., Calabasas Hill, Calif.) with a sensitivity of 0.3 mg/mL. Intra- and inter-assay coefficients of variation were 5.1-13% and 5.5-17%, respectively. HDL, LDL, total cholesterol, triglycerides and FFA were determined by enzymatic calorimetric assay. Glucose was measured by enzymatric test (Gluco-Quant®, Roche diagnostics, Indianapolis, Ind.). HbA1c was determined by chromatography.
Other endpoints included IGF-I, lipid parameters, glucose and insulin, CD4, viral load, bone markers, and quality of life. A sample size of 20 patients/group was planned to assess a statistically significant change of 10% or more in intra-group analyses. The planned dropout rate was 25% and therefore 60 patients were enrolled into the study. Baseline data are compared between the groups by F-test based on ANOVA for continuous variables and Chi-Square test for categorical variables. Change over time between groups is compared by ANOVA or the Chi-Square test. Where appropriate, data were rank transformed prior to analysis. Changes within each group are determined by t-test. The ITT (intent to treat) population is defined as all subjects who received at least one dose of the study treatment. Descriptive statistics and analyses for all efficacy and safety analyses are performed on the ITT population. End of study, 12 week, data are used to calculate changes in body composition. For biochemical indices, the last observation available is used to calculate change. Imputation for missing data is not performed. For body composition, end of study data are used to calculate change. Interim analyses were not performed. Results are mean (SD) unless otherwise noted. All statistical tests were performed with a two-sided Type I error level of 0.05.

[11] = system: HIV-infected patients with abdominal fat accumulation; conditions: for CD4, Δ: change from baseline, Week 12, mean (SD)
Experimental: as §3
(§4) Biochemical parameters including insulin-like growth factor-I, glucose, insulin, lipid profile (cholesterol, HDL, LDL, triglyceride, non HDL and the ratio of cholesterol:HDL), free fatty acids, HbA1C, IGFBP-3, and bone markers (serum osteocalcin and NTX-1), CD4, viral load, and a pregnancy test for female subjects were determined in the fasting state.
(§5) Clinical laboratory testing was performed by a central lab. […] NTX (N-terminal telopeptide of type I collagen; a bone resorption marker) was measured by ELISA using a commercially available kit (Osteomark™, Ostex International Inc., Seattle, Wash.). Osteocalcin was measured using a commercially available enzymatic immunoassay kit (Metra™ osteocalcin, Quidel Corporation, San Diego, Calif.). CD4 and viral load were performed by the individual site labs by routine methodology.

IGF-1 [12] = conditions: daily 1 and 2 mg doses; reference (14); cited from earlier work
[13] = system: type II diabetic patients; conditions: patients with Type II DM, daily dose up to 2 mg; reference (15); cited from earlier work
[14] = system: HIV-infected patients with abdominal fat accumulation; assay: Bone turnover markers (osteocalcin, NTX), HIV lipodystrophy study; conditions: for NTX, Δ / Osteocalcin, Δ: change from baseline, Week 12, mean (SD)
Experimental: as §3, §4, §5

[15] = system: HIV-infected patients with abdominal fat accumulation; assay: Abdominal VAT and SAT by cross-sectional CT, HIV lipodystrophy study; conditions: for SAT, Δ / VAT, Δ: change from baseline, Week 12, mean (SD)
Experimental: as §3
Patients: 61 HIV-infected patients (BMI 28±3 [SD] kg/m^2, 28% diabetic or glucose intolerant) with increased waist circumference (102 cm±8 [SD]) and waist/hip (1.0±0.1 [SD])
At the baseline visit, anthropometric measurements were obtained. Total body lean and fat mass as well as regional fat mass in the trunk and extremities were assessed by DEXA. Abdominal subcutaneous and visceral fat area and the ratio of VAT to SAT were determined by cross-sectional CT at L4-L5.
Whole body and regional DEXA (dual energy X-ray absorptiometry) and cross-sectional abdominal CT scans were performed at the individual study sites based on previously established protocols and were standardized across sites. Digitized images were sent to a central reading center, St. Lukes Roosevelt Hospital, for analysis by independent experts without knowledge of treatment assignment. Each site was given a procedure manual to follow in obtaining the body composition data and was certified in the proper technique. For the CT scans, parameters were standardized as follows: Tube Voltage=120 kV, Tube Current=250 mA, Exposure=375 mAs, matrix 512×512. DFOV was set to include the entire slice into the field of view. For the DEXA scans total body scans were performed with analysis of lean body mass, total fat mass, and regional fat mass in the trunk and extremities as previously described (16).
Body composition endpoints included trunk fat and trunk to limb fat ratio by DEXA and VAT and VAT:SAT by CT scan. […] Baseline data are compared between the groups by F-test based on ANOVA for continuous variables and Chi-Square test for categorical variables. Change over time between groups is compared by ANOVA or the Chi-Square test. Where appropriate, data were rank transformed prior to analysis. Changes within each group are determined by t-test. The ITT (intent to treat) population is defined as all subjects who received at least one dose of the study treatment. Descriptive statistics and analyses for all efficacy and safety analyses are performed on the ITT population. End of study, 12 week, data are used to calculate changes in body composition. […] Imputation for missing data is not performed. For body composition, end of study data are used to calculate change. […] Results are mean (SD) unless otherwise noted. All statistical tests were performed with a two-sided Type I error level of 0.05.

[16] = Adverse events, discontinuation and safety laboratory, HIV lipodystrophy study

## CC/C=C/CC(=O)N[C@@H](Cc1ccc(O)cc1)C(=O)N[C@@H](C)C(=O)N[C@@H](CC(=O)O)C(=O)N[C@@H](C)C(=O)N[C@H](C(=O)N[C@@H](Cc1ccccc1)C(=O)N[C@H](C(=O)N[C@@H](CC(N)=O)C(=O)N[C@@H](CO)C(=O)N[C@@H](Cc1ccc(O)cc1)C(=O)N[C@@H](CCCNC(=N)N)C(=O)N[C@@H](CCCCN)C(=O)N[C@H](C(=O)N[C@@H](CC(C)C)C(=O)NCC(=O)N[C@@H](CCC(N)=O)C(=O)N[C@@H](CC(C)C)C(=O)N[C@@H](CO)C(=O)N[C@@H](C)C(=O)N[C@@H](CCCNC(=N)N)C(=O)N[C@@H](CCCCN)C(=O)N[C@@H](CC(C)C)C(=O)N[C@@H](CC(C)C)C(=O)N[C@@H](CCC(N)=O)C(=O)N[C@@H](CC(=O)O)C(=O)N[C@H](C(=O)N[C@@H](CCSC)C(=O)N[C@@H](CO)C(=O)N[C@@H](CCCNC(=N)N)C(=O)N[C@@H](CCC(N)=O)C(=O)N[C@@H](CCC(N)=O)C(=O)NCC(=O)N[C@@H](CCC(=O)O)C(=O)N[C@@H](CO)C(=O)N[C@@H](CC(N)=O)C(=O)N[C@@H](CCC(N)=O)C(=O)N[C@@H](CCC(=O)O)C(=O)N[C@@H](CCCNC(=N)N)C(=O)NCC(=O)N[C@@H](C)C(=O)N[C@@H](CCCNC(=N)N)C(=O)N[C@@H](C)C(=O)N[C@@H](CCCNC(=N)N)C(=O)N[C@@H](CC(C)C)C(N)=O)[C@@H](C)CC)C(C)C)[C@@H](C)O)[C@@H](C)CC [TH9507, (hexenoyl trans-3)hGRF(1-44)NH2]
In vitro half-life
  half-life: 3 to 8 h
[1]; 0.1 mg SC daily at bedtime, baseline to day 9
  Mean Reaction Time of the CPT, decrease from baseline: 45.85 ms
[1]; 1 mg SC daily at bedtime
  Mean Reaction Time of the CPT vs placebo: No significant effect
[2]
  Change from Baseline to day 9 in the Pz amplitude of the Evoked Related Potential (P300): +55%
[3]; 1 mg, insomnia study, vs placebo
  reactions at the site of injection: higher incidence
[3]; both vigilance studies
  safety profile: comparable to that of the placebo
[4]
  mean AUC of antigen-specific proliferative T cell response vs placebo: statistically higher
[5]; Panama and New Caledonia strains
  percentage of subjects with protective antibody level: No statistical difference
[5]; Victoria antigen, statistically significant at 2 mg, weeks 6-20
  proportion of patients achieving a protective antibody level vs placebo: increased
IGF-1 [6]
  mean IGF-1 values vs baseline: dose-related increase
[7]
  incidence of adverse events between treatment groups: No major difference
  incidence of reactions at the site of injection: dose-related trend
IGF-1 [8]; 0.5 mg SC once a day
  IGF-1 increase over baseline values: 37%
IGF-1 [8]; 1 mg
  time at which IGF-1 plateau was reached: 4 days
IGF-1 [8]; 1 mg SC once a day
  IGF-1 increase over baseline values: 89%
  IGF-1 levels reached: 286 ± 25 ng/mL
IGF-1 [8]; 2 mg
  time at which IGF-1 plateau was reached: 6 days
IGF-1 [8]; 2 mg SC once a day
  IGF-1 increase over baseline values: 106%
  IGF-1 levels reached: 284 ± 55 ng/mL
IGF-1 [8]; none of the subjects greater than this level
  IGF-1 levels of individual subjects: ≤ 400 ng/mL
[9]; 0.5, 1, 2 mg SC
  Cmax and AUC parameters: increased in function of the dose administered
[9]; male, human, in vivo, SC, healthy men
  half-life: 2 to 5 h
[10]; 1 mg SC QD
  Fasting Glucose, Δ: 0.1 (0.5) mmol/L
  Fasting Insulin, Δ: −2.8 (27.6) mUI/L
  HBA1c, Δ: 0.2 (0.4)* %
  HOMA-R, Δ: 0.8 (7.0)
  Two hour glucose, Δ: 0.1 (2.1) mmol/L
[10]; 2 mg SC QD
  Fasting Glucose, Δ: 0.1 (0.7) mmol/L
  Fasting Insulin, Δ: 7.4 (6.2) mUI/L
  HBA1c, Δ: −0.0 (0.5) %
  HOMA-R, Δ: 2.0 (1.6)
  Two hour glucose, Δ: 0.7 (1.7) mmol/L
[11]; 1 mg SC QD
  CD4, Δ: 24.4 (147.41) cells/mm^3
[11]; 2 mg SC QD
  CD4, Δ: −23.2 (70.7) cells/mm^3
[11]; in vivo
  CD4 count and viral load: did not change
IGF-1 [12]
  IGF-I: increase IGF-I to the physiological range seen in younger adults
[13]
  overall glycemic control: not shown to aggravate overall glycemic control
[14]; 1 mg SC QD
  NTX, Δ: 4.5 (24.9) nMBCE/mM
  Osteocalcin, Δ: 1.5 (4.8) ng/mL
[14]; 2 mg SC QD, 12 weeks
  NTX: no changes
  Osteocalcin within group: increased significantly
[14]; 2 mg SC QD
  NTX, Δ: −0.5 (27.7) nMBCE/mM
  Osteocalcin, Δ: 3.0 (2.8)* ng/mL
[15]; 1 mg SC QD, 12 weeks
  Visceral fat (VAT) change: −3.6%
[15]; 1 mg SC QD
  SAT, Δ: 6.8 (21.2) cm^2
  VAT, Δ: −11.9 (28.7) cm^2
[15]; 2 mg SC QD, 12 weeks
  Visceral fat (VAT) change: −15.7%
[15]; 2 mg SC QD
  SAT, Δ: 4.4 (19.8) cm^2
  VAT, Δ: −21.5 (27.9)* cm^2
[15]; 2 mg, over 3 months
  Visceral fat decrease within group: more than 15%
[15]; 1 and 2 mg SC QD, 12 weeks, between or within groups
  subcutaneous fat (SAT): preserved; also recorded: did not change significantly
[16]; 1 mg
  Musculoskeletal AE's e.g. pain and arthralgias, subjects: 26%
[16]; 2 mg
  Musculoskeletal AE's e.g. pain and arthralgias, subjects: 29%
